Data: patent US20070128217A1 (priority 2003, published 2007)

Tests used:
[1] = system: recombinant human anti-SARS-CoV antibody 03-018; assay type: binding; parameters: Binding of antibody 03-018 to linear peptides of the N protein of SARS-CoV Urbani / Binding of antibody 03-018 to looped/cyclic peptides of the N protein of SARS-CoV Urbani: unit not given here
[2] = system: control sera (pooled serum of ten healthy LUMC hospital workers; commercial negative donor pooled serum from the Dutch bloodbank); assay type: binding, human; parameters: Binding of Control serum LUMC to linear peptides / Binding of Control serum Blood-bank to linear peptides / Binding of Control serum LUMC to looped peptides / Binding of Control Serum Blood-Bank to Looped peptides / Binding of Control serum LUMC to linear peptides of the protein M of SARS-CoV Urbani / Binding of Control serum Blood-bank to linear peptides of the protein M of SARS-CoV Urbani / Binding of Control serum LUMC to looped peptides of the protein M of SARS-CoV Urbani / Binding of Control Serum Blood-Bank to Looped peptides of the protein M of SARS-CoV Urbani: unit not given here
[3] = system: antibodies in sera from SARS patients (sera 1a, 1b, 2, 6, 37, 62, London, SARS-yellow, SARS-green); assay type: binding, human; parameters: Binding of serum 6 to linear peptides of protein X1 of SARS-CoV Urbani / Binding of serum 37 to linear peptides of protein X1 of SARS-CoV Urbani / Binding of serum 6 to looped/cyclic peptide (PEPSCAN-ELISA) / Binding of serum 37 to looped/cyclic peptide (PEPSCAN-ELISA) / Binding of serum 37 to looped/cyclic peptides of protein X1 of SARS-CoV Urbani / Binding of serum 6 to linear peptides of protein X2 / Binding of serum 37 to linear peptides of protein X2 / Binding of serum 37 to looped/cyclic peptides of protein X2 of SARS-CoV Urbani / Binding of serum 6 to linear peptides of protein M of SARS-CoV Urbani / Binding of serum 37 to linear peptides of protein M of SARS-CoV Urbani / Binding of serum 6 to looped/cyclic peptides of protein M of SARS-CoV Urbani / Binding of serum 37 to looped/cyclic peptides of protein M of SARS-CoV Urbani / Binding of serum 6 to linear peptides of protein X3 of SARS-CoV Urbani / Binding of serum 37 to linear peptides of protein X3 of SARS-CoV Urbani / Binding of serum 37 to looped/cyclic peptides of protein X3 of SARS-CoV Urbani / Binding of serum 6 to linear peptides of protein X4 of SARS-CoV Urbani / Binding of serum 37 to linear peptides of protein X4 of SARS-CoV Urbani / Binding of serum 37 to looped/cyclic peptides of protein X4 of SARS-CoV Urbani / Binding of serum 6 to linear peptides of protein X5 of SARS-CoV Urbani / Binding of serum 37 to linear peptides of protein X5 of SARS-CoV Urbani / Binding of serum 37 to looped/cyclic peptides of protein X5 of SARS-CoV Urbani / Binding of serum 6 to linear peptides of protein N of SARS-CoV Urbani / Binding of serum 37 to linear peptides of protein N of SARS-CoV Urbani / Binding of serum 6 to linear peptide (PEPSCAN-ELISA) / Binding of serum 1a to looped/cyclic peptides of protein N of SARS-CoV Urbani / Binding of serum 1b to looped/cyclic peptides of protein N of SARS-CoV Urbani / Binding of serum 2 to looped/cyclic peptides of protein N of SARS-CoV Urbani / Binding of serum 6 to looped/cyclic peptides of protein N of SARS-CoV Urbani / Binding of serum 37 to looped/cyclic peptides of protein N of SARS-CoV Urbani / Binding of serum 62 to looped/cyclic peptides of protein N of SARS-CoV Urbani / Binding of serum London to looped/cyclic peptides of protein N of SARS-CoV Urbani / Binding of serum SARS-green to looped/cyclic peptides of protein N of SARS-CoV Urbani: unit not given here
[4] = system: rabbit serum obtained by immunizing a rabbit with the SARS-CoV strain Frankfurt 1; assay type: binding; parameters: Binding of a rabbit serum to linear peptides / Binding of a rabbit serum to looped peptides / Rabbit serum linear peptides / Rabbit serum looped peptides / Binding of a rabbit serum to linear peptides of protein N of SARS-CoV Urbani (Rabbit serum linear peptides) / Binding of a rabbit serum to looped/cyclic peptides of protein N of SARS-CoV Urbani (Rabbit serum looped peptides): unit not given here

Row | Sequence | Binding of antibody 03-018 to linear peptides of the N protein of SARS-CoV Urbani [1] | Binding of antibody 03-018 to looped/cyclic peptides of the N protein of SARS-CoV Urbani [1] | Binding of Control Serum Blood-Bank to Looped peptides [2] | Binding of Control serum Blood-bank to linear peptides [2] | Binding of Control serum LUMC to linear peptides [2] | Binding of Control serum LUMC to looped peptides [2] | Binding of serum 1a to linear peptides of protein N of SARS-CoV Urbani [3] | Binding of serum 1a to looped/cyclic peptides of protein N of SARS-CoV Urbani [3] | Binding of serum 1b to linear peptides of protein N of SARS-CoV Urbani [3] | Binding of serum 1b to looped/cyclic peptides of protein N of SARS-CoV Urbani [3] | Binding of serum 2 to linear peptides of protein N of SARS-CoV Urbani [3] | Binding of serum 2 to looped/cyclic peptides of protein N of SARS-CoV Urbani [3] | Binding of serum 6 to looped/cyclic peptides of protein N of SARS-CoV Urbani [3] | Binding of serum 37 to looped/cyclic peptides of protein N of SARS-CoV Urbani [3] | Binding of serum 62 to looped/cyclic peptides of protein N of SARS-CoV Urbani [3] | Binding of serum London to looped/cyclic peptides of protein N of SARS-CoV Urbani [3] | Binding of serum SARS-green to looped/cyclic peptides of protein N of SARS-CoV Urbani [3] | Binding of serum SARS-yellow to looped/cyclic peptides of protein N of SARS-CoV Urbani [3] | Binding of a rabbit serum to linear peptides of protein N of SARS-CoV Urbani (Rabbit serum linear peptides) [4] | Binding of a rabbit serum to looped/cyclic peptides of protein N of SARS-CoV Urbani (Rabbit serum looped peptides) [4] | also measured
1 | FPRGQGVPINTNSGP | 0.1 | 0.2 | 0.6 | 0.8 | 0.7 | 0.5 | 0.2 | 0.3 | 0.1 | 0.2 | 0.3 | 0.4 | 0.2 | 0.5 | 0.4 | 0.4 | 0.4 | 0.4 | 0.2 | 0.2 | Binding of serum 6 to linear peptides of protein N of SARS-CoV Urbani [3]: 0.2; Binding of serum 37 to linear peptides of protein N of SARS-CoV Urbani [3]: 0.7; Binding of serum 62 to linear peptides of protein N of SARS-CoV Urbani [3]: 0.6; Binding of serum London to linear peptides of protein N of SARS-CoV Urbani [3]: 0.5; Binding of serum SARS-green to linear peptides of protein N of SARS-CoV Urbani [3]: 0.3; Binding of serum SARS-yellow to linear peptides of protein N of SARS-CoV Urbani [3]: 0.6
2 | FYAEGSRGGSQASSR | 0.1 | 0.1 | 0.6 | 0.8 | 0.7 | 0.8 |  | 0.3 |  | 0.2 |  | 0.4 | 0.3 | 0.6 | 0.6 | 0.4 | 0.4 | 0.3 | 0.3 | 0.4 | Binding of serum 1a to linear peptide (PEPSCAN-ELISA) [3]: 0.3; Binding of serum 1b to linear peptide (PEPSCAN-ELISA) [3]: 0.2; Binding of serum 2 to linear peptide (PEPSCAN-ELISA) [3]: 0.2; Binding of serum 6 to linear peptide (PEPSCAN-ELISA) [3]: 0.3; Binding of serum 37 to linear peptide (PEPSCAN-ELISA) [3]: 0.7; Binding of serum 62 to linear peptide (PEPSCAN-ELISA) [3]: 0.8; Binding of serum London to linear peptide (PEPSCAN-ELISA) [3]: 0.5; Binding of serum SARS-green to linear peptide (PEPSCAN-ELISA) [3]: 0.4; Binding of serum SARS-yellow to linear peptide (PEPSCAN-ELISA) [3]: 0.6
3 | GALNTPKDHIGTRNP | 0.1 | 0.2 | 0.5 | 0.7 | 0.6 | 0.4 | 0.3 | 0.2 | 0.1 | 0.1 | 0.2 | 0.5 | 0.2 | 0.5 | 0.3 | 0.4 | 0.2 | 0.2 | 0.2 | 0.0 | Binding of serum 6 to linear peptides of protein N of SARS-CoV Urbani [3]: 0.2; Binding of serum 37 to linear peptides of protein N of SARS-CoV Urbani [3]: 0.7; Binding of serum 62 to linear peptides of protein N of SARS-CoV Urbani [3]: 0.7; Binding of serum London to linear peptides of protein N of SARS-CoV Urbani [3]: 0.5; Binding of serum SARS-green to linear peptides of protein N of SARS-CoV Urbani [3]: 0.4; Binding of serum SARS-yellow to linear peptides of protein N of SARS-CoV Urbani [3]: 0.7
